Experimental data as given in patent US12351580B2, “NLRP3 modulators” (Innate Tumor Immunity, Inc., priority 2017, dated 2025).

Target: T1, hNLRP3 (Homo sapiens, UniProt Q96P20)
T1 construct: THP-1 cells were purchased from the American Type Culture Collection; host or cells: THP-1 cells, PMA-differentiated
Assay: Measurement of IL-1β production in PMA-differentiated THP-1 cells (hNLRP3 agonist; ELISA, alternative and hTRF procedures)
Format: cell-based
Procedure, shortened: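 PMA-differentiated THP-1 cells (PMA […] 24 h, 20 μg/ml overnight, or 50 ng/ml overnight, by procedure) replated in RPMI with 2% FBS and exposed to compound (e.g. 100–0.1 μM, 1% DMSO; hTRF format top 10 μM) for 4 h, 2 h, or 2 h respectively. Supernatant IL-1β measured by ELISA, or by hTRF with antibodies diluted 1:40.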

T1 sequence (Q96P20 whole entry): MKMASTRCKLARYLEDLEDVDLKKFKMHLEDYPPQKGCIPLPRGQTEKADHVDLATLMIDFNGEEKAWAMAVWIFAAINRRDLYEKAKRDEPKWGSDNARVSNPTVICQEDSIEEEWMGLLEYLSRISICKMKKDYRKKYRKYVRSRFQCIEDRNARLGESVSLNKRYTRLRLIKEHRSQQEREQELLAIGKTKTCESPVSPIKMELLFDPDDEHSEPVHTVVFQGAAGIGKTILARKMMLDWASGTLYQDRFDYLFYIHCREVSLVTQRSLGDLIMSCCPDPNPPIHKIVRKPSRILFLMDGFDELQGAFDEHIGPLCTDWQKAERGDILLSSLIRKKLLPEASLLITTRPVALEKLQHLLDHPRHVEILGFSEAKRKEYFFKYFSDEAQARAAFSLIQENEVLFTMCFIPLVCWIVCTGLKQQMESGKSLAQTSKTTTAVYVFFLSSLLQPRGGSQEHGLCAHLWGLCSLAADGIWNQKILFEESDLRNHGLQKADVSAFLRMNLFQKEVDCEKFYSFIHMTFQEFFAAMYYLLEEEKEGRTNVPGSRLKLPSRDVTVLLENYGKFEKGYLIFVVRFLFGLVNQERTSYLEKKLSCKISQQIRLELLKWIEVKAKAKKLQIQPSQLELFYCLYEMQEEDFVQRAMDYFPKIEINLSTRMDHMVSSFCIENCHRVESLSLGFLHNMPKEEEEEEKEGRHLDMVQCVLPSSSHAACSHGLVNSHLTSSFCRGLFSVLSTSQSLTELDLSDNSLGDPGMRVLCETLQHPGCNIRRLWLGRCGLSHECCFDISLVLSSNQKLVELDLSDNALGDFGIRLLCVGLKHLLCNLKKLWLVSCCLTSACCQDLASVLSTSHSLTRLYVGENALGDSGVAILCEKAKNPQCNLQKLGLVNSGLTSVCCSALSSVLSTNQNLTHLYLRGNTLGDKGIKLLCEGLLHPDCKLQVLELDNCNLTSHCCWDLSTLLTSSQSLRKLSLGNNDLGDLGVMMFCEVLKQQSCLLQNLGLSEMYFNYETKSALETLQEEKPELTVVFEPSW

| SMILES | EC50 [nM] |
| --- | --- |
| CCN(Cc1nc2c(N)nc3cc(-n4cccn4)ccc3c2n1CC)C(C)=O [Compound 479, N-{[4-amino-1-ethyl-7-(1H-pyrazol-1-yl)-1H-imidazo[4,5-c]quinolin-2-yl]methyl}-N-ethylacetamide] | 670 |
| CCC(=O)N(CC)Cc1nc2c(N)nc3cc(-c4cccs4)ccc3c2n1CC [Compound 480, N-{[4-amino-1-ethyl-7-(thiophen-2-yl)-1H-imidazo[4,5-c]quinolin-2-yl]methyl}-N-ethylpropanamide] | 1900 |
| CCN(Cc1nc2c(N)nc3cc(-c4cccs4)ccc3c2n1CCO)C(C)=O [Compound 482, N-{[4-amino-1-(2-hydroxyethyl)-7-(thiophen-2-yl)-1H-imidazo[4,5-c]quinolin-2-yl]methyl}-N-ethylacetamide] | 430 |

Other lines, results leading:

| EC50 [nM] | SMILES |
| --- | --- |
| 3700 | CCC(=O)N(CC)Cc1nc2c(N)nc3cc(-n4cccn4)ccc3c2n1CCO [Compound 478, N-{[4-amino-1-(2-hydroxyethyl)-7-(1H-pyrazol-1-yl)-1H-imidazo[4,5-c]quinolin-2-yl]methyl}-N-ethylpropanamide] |
| 630 | CCC(=O)N(CC)Cc1nc2c(N)nc3cc(-n4cccn4)ccc3c2n1CC [Compound 481, N-{[4-amino-1-ethyl-7-(1H-pyrazol-1-yl)-1H-imidazo[4,5-c]quinolin-2-yl]methyl}-N-ethylpropanamide] |
